Measurements published in ChEMBL document CHEMBL1122964, “Conformational analysis and active site modelling of angiotensin-converting enzyme inhibitors” (J Med Chem, 1985).
Where a SMILES comes first, the peptide text is derived from it. The star is where a group is joined. Bz = O=C(c1ccccc1)*

molecular target: T1, Angiotensin-converting enzyme (Homo sapiens, UniProt P12821); experiment: Compound was evaluated for the inhibition of Angiotensin I converting enzyme; details: not given
T1 sequence (P12821 whole entry): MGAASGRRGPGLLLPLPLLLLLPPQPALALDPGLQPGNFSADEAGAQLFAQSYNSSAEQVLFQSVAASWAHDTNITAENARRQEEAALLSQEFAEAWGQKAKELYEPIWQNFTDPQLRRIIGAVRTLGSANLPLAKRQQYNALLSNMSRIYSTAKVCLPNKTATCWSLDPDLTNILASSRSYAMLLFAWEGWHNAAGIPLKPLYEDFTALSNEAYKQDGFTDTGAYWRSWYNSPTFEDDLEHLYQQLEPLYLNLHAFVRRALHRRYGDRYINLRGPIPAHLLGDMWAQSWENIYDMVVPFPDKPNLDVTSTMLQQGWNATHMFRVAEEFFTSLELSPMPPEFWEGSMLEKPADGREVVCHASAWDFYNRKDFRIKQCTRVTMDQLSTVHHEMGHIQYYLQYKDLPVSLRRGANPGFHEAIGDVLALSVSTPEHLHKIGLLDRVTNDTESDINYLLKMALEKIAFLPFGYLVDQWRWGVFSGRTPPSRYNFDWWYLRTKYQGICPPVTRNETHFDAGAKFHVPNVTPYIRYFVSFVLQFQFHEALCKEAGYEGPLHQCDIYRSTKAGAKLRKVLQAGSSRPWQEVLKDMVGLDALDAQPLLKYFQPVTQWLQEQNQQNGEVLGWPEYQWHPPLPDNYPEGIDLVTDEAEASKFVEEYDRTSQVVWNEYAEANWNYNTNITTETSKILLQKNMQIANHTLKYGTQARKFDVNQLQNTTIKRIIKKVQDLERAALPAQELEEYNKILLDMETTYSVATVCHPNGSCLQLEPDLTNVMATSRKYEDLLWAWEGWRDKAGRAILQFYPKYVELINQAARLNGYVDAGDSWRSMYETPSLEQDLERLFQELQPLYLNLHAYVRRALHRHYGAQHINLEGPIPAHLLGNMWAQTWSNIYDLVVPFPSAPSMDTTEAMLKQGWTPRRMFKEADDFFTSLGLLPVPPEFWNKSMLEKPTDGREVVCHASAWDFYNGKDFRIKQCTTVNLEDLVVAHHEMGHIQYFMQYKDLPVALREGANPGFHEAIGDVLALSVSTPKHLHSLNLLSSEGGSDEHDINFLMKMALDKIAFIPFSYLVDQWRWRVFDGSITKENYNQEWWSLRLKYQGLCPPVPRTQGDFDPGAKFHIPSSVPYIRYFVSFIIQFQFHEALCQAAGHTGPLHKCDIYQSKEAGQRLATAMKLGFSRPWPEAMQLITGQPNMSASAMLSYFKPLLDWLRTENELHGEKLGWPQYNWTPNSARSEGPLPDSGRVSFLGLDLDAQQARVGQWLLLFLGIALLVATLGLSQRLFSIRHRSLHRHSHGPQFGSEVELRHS

Row | Structure (SMILES) | Ki [µM]
1 | C[C@@H](NP(=O)(O)O)C(=O)N1CCC[C@H]1C(=O)O | 0.0014
2 | C[C@H](NP(=O)(O)CCc1ccccc1)C(=O)N1CCC[C@H]1C(=O)O | 0.0005

molecular target: T1, Angiotensin-converting enzyme; experiment: Inhibition of Angiotensin I converting enzyme; details: read-out: I50

Row | IC50 [µM] | Structure (SMILES)
3 | 1800 | O=C(O)[C@@H]1CCCN1C(=O)CCS
4 | 0.003 | O=C(O)CN1C(=O)[C@@H](NC(CCc2ccccc2)C(=O)O)CSc2ccccc21 (stereo partly specified)
5 | 0.2 | O=C(O)[C@H]1CCCN1C(=O)CCS
6 | 0.0032 | C[C@H](NC(=O)[C@H](Cc1ccccc1)NC(=O)c1ccccc1)C(=O)N1CCC[C@H]1C(=O)O (Bz-Phe-Ala-Pro-OH)
